Reference: PMC8440923, “Peptides Targeting the Interaction Between Erb1 and Ytm1 Ribosome Assembly Factors” (Frontiers in Molecular Biosciences, 2021)

Columns and labels:
Format in all cases: binding, Chaetomium thermophilum
[1] = target: T1, Erb1/Ytm1 complex (Thermochaetoides thermophila, UniProt G0SFB5); assay: Biolayer interferometry peptide interference assay, immobilized Erb1, Ytm1 analyte preincubated with P1-P3; conditions: BLI, 5 µM Ytm1 preincubated with equimolar peptide, reference without peptide 1.724e-3
T1 construct: 6xHis; made in house; host or cells: Ytm1: Sf9 insect cells (baculovirus); Erb1: Escherichia coli (DE3) BL21 CodonPlus (RIPL)
T1 sequence (G0SFB5 1-495): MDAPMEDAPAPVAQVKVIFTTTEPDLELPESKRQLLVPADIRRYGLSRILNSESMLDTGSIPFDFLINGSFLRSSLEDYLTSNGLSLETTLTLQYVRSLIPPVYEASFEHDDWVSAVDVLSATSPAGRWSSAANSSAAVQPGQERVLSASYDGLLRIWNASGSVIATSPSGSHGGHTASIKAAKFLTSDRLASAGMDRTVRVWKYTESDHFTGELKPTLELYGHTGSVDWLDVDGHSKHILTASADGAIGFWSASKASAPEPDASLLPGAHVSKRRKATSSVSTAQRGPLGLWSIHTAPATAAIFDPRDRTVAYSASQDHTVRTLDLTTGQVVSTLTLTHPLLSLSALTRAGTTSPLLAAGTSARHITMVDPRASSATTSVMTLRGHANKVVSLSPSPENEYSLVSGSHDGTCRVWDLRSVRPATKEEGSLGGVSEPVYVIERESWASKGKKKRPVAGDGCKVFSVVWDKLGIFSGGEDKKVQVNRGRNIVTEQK
Protocol: Peptides were commercially obtained from Synpeptide Co., Ltd., Shanghai, China. All experiments have been made in triplicates and include control curves for bait and analyte only.
Potential interference peptide samples were evaluated by their ability to interfere the kinetics and affinity of the complex between Erb1 and Ytm1 as measured by Biolayer Interferometry (BLItz, Pall FortéBio Corp.) using Ni-NTA biosensors (FortéBio) and 50 mM HEPES, pH 7.5; 150 mM NaCl; 5% (v/v) glycerol; and 2 mM β-mercaptoethanol (BME) buffer. To set the reference KD, an 80 µg/ml solution of Erb1 was immobilized to the biosensor in order to obtain binding curves for increasing concentrations of Ytm1. According to this, an evaluation of Erb1-derived peptides (P1–P3) was performed using 5 µM Ytm1 previously incubated during 30 min at equimolar concentrations of each peptide. New KD values were determined. […]
Biolayer interferometry interference assays were used to evaluate the ability of each peptide to interfere in the in vitro formation of the Erb1/Ytm1 complex. […] Peptides were evaluated for their ability to decrease in the Erb1/Ytm1 complex formation by preincubating the analyte with each peptide derived from the immobilized partner. […] Erb1-derived peptides were evaluated by their ability to decrease Erb1/Ytm1 complex affinity. […]

[2] = target: T2, Ytm1 (Thermochaetoides thermophila, UniProt G0SFB5); assay: Differential scanning fluorimetry (thermofluor) of Ytm1 with peptide; conditions: DSF, SYPRO Orange 1:1,000; 5 µM Ytm1, 1 mM peptide; 50 mM HEPES pH 7.5, 150 mM NaCl; 20-85°C at 1°C/min; triplicates
T2 construct: 6xHis; made in house; host or cells: Sf9 insect cells (baculovirus)
T2 sequence (G0SFB5 1-495): T1 sequence (G0SFB5 1-495)
Protocol: Thermofluor assays ([Pantoliano et al., 2001]) were performed on a 7,500 Fast Real-Time PCR System (Applied Biosystems) measuring the gradual fluorescence generated by a 1:1,000 dilution of SYPRO Orange Protein Stain Gel (Supelco, Merck-Sigma) along with 1°C/min temperature increase from 20°C until 85°C.
The samples were mixed containing the protein Ytm1 at 5 µM in 50 mM HEPES pH 7.5, 150 mM NaCl and peptides P1-P3 at 1 mM concentration. Previously, lyophilized P2 and P3 were resuspended in the same Ytm1 buffer and P1 was solubilized in 10 mM Tris (hydroxymethyl)-methylamine (Tris-HCl), pH 8.8 for P1. Data of triplicated experiments were analyzed using GraphPad Prism 5.01 software.

[3] = target: T2, Ytm1; assay: Microscale thermophoresis of labelled Ytm1 with peptide; conditions: peptide at a maximum concentration of 1,580 µM, data quality did not allow fitting of KD
Protocol: Microscale thermophoresis (MST) was used to determine the binding affinity between Ytm1 and P1. Ytm1 was labeled with a Red-NHS second-generation dye kit (100 µl at 10 µM of protein +300 µM dye solution) for 30 min at room temperature in the dark. 5 nM of labeled Ytm1 in 50 mM HEPES pH 7.5, NaCl 150 mM supplemented with 0.1% (v/v) Pluronic F-127 was used for the assay. P1 stock is diluted in 10 mM Tris (hydroxymethyl)-methylamine (Tris-HCl), pH 8.8. Ytm1 and P1 were mixed at 1:1 molar ratio in sixteen serial dilutions (1,230 μM–0.0751 µM) using the same buffer. Measurements were taken on a Monolith NT.115 instrument (NanoTemper Technologies). Similarly biding between Ytm1 and P3 using MST was tested using the same Ytm1 buffer also for P3. Curve fitting and KD calculations every 10 min were analyzed from three independent experiments with MO. […] Curves were analyzed using Affinity Analysis Software (NanoTemper Technologies).

DWHPREPWCV [Peptide P3, Erb1-derived peptide …, residues 780–789]
kd (1/s) of Erb1/Ytm1 binding after preincubation of Ytm1 with peptide [1]: 0.01238 s⁻¹
Thermal shift (Tm) of Ytm1 in the presence of peptide [2]: did not show any significant thermal shift
Binding to Ytm1 by MST (in words) [3]: tendency toward binding
